Measured values published in patent US20040106104A1, “Viral envelope mediated fusion assay” (priority 2002, published 2004).

What was measured:
[1] = system: HIV NL4-3 envelope; experiment: TOPO cell mediated fusion assay, NL4-3 envelope; format: cell-based; conditions: envelope NL4-3; linear envelope expression element; Hela H1 effector and target cells, luciferase; read-out: BMS-806 EC50 TOPO Cell Fusion
Description: (§1) Preparation of Linear HIV Envelope Expression Element HIV viral RNA was isolated from 140 μl culture supernatant using a QIAamp Viral RNA Mini Kit (Qiagen Inc). The viral RNA was eluted in 60 μl of elution buffer. First strand cDNA was synthesized using the SuperScript First-Strand Synthesis system for RT-PCR (Invitrogen Corporation) using 8 μl of viral RNA and random hexamers according to the manufactures instructions. The HIV envelope gene was PCR amplified using 4 μl of first strand CDNA, primers BF17 5′-[sequence]-3′ and ENV-N 5′-[sequence]-3′ and a Platimun Taq DNA Polymerase High Fidelity Kit (Invitrogen) in a 100 μl reaction. The PCR product was purified using a QIAquick PCR Purification Kit (Qiagen Inc, Valencia, Calif.). In order to introduce the proper ends for the TOPO reaction 1 μl of the first PCR reaction was PCR amplified using primers:
(§2) in 100 μl as before. The PCR reaction was run on a 0.7% agarose gel and the about 3 kb HIV envelope gene was gel purified using a QIAquick Gel Extraction KIT (Qiagen Inc). The 5′ CMV promoter element and 3′ SV40 polyadenylation element were added to 700 ng of the HIV envelope PCR fragment using a TOPO Tools Kit (Invitrogen) and the final PCR product was purified as before. […]

[2] = system: HIV NL4-3 whole virus; experiment: Whole virus assay, NL4-3; format: cell-based; conditions: read-out: BMS-806 EC50 Whole Virus
[3] = system: HIV LAI whole virus; experiment: Whole virus assay, LAI; format: cell-based; conditions: read-out: BMS-806 EC50 Whole Virus
[4] = system: HIV envelope BRH04820; experiment: TOPO cell mediated fusion assay, clinical envelope BRH04820; format: cell-based; conditions: clinical envelope BRH04820, source serum; read-out: BMS-806 EC50 TOPO Fusion
Description: (§3) The effector cells were prepared by transfecting 1.7×10^6 Hela H1 cells in a T75 flask with the linear viral envelope expression element and pTET-Off using a Lipofectamine Plus Kit (Invitrogen) as follows. 3 μg of the linear envelope expression vector and 3 μg of pTET-OFF were mixed with 750 μl of D-MEM media. 49 μl of Plus Reagent was added to the DNA mixture, the solution was mixed. After 15 minutes at room temperature a solution consisting of 750 μl D-MEM and 30 μl of lipofectamine was added to the DNA solution. The solution was mixed and incubated at room temperature for 15 minutes. The media from 1.7×10^6 Hela H1 cells ion a T75 flask was removed, the cells were washed with 15 ml of D-PBS, and 6 ml of D-MEM without serum was added to the cells. The DNA/lipofectamine solution was mixed, added to the cells and the cells were then incubated at 37° C. in the presence of 5% CO2. After 4 hours, the transfection mixture was removed and replaced with 15 ml of D-MEM 10% FBS and incubated overnight at 37° C. in the presence of 5% CO2.
(§4) Preparation of Target Cells Hela H1 cells expressing CD4, CXCR4, CCR5, and containing an integrated copy of a TRE/luciferase reporter gene were used as target cells. These cells were maintained in DMEM containing 10% FBS, 0.2 mg/ml G418, 0.4 mg/ml zeocin, 0.1 mg/ml hygromycin B, and 1.5 μg/ml puromycin. […]

[5] = system: HIV envelope BRH04821; experiment: TOPO cell mediated fusion assay, clinical envelope BRH04821; format: cell-based; conditions: clinical envelope BRH04821, source serum; read-out: BMS-806 EC50 TOPO Fusion
Description: as §3, §4

[6] = system: HIV envelope 92US072; experiment: TOPO cell mediated fusion assay, clinical envelope 92US072; format: cell-based; conditions: clinical envelope 92US072, source PBMC; read-out: BMS-806 EC50 TOPO Fusion
Description: as §3, §4

[7] = system: HIV envelope 93US157; experiment: TOPO cell mediated fusion assay, clinical envelope 93US157; format: cell-based; conditions: clinical envelope 93US157, source PBMC; read-out: BMS-806 EC50 TOPO Fusion
Description: as §3, §4

[8] = system: HIV BRH04820 whole virus; experiment: Whole virus assay, BRH04820; format: cell-based; conditions: BRH04820, source serum; read-out: BMS-806 EC50 Whole Virus
[9] = system: HIV BRH04821 whole virus; experiment: Whole virus assay, BRH04821; format: cell-based; conditions: BRH04821, source serum; read-out: BMS-806 EC50 Whole Virus
[10] = system: HIV 92US072 whole virus; experiment: Whole virus assay, 92US072; format: cell-based; conditions: 92US072, source PBMC; read-out: BMS-806 EC50 Whole Virus
[11] = system: HIV 93US157 whole virus; experiment: Whole virus assay, 93US157; format: cell-based; conditions: 93US157, source PBMC; read-out: BMS-806 EC50 Whole Virus
[12] = molecular target: HIV LAI envelope (Human immunodeficiency virus type 1 group M subtype B, UniProt P03377); conditions: read-out: BMS-806 EC50 TOPO Cell Fusion, linear envelope expression element, Hela H1 effector and target cells, luciferase
Description: as §1, §2

**Q.** `COc1ccnc2[nH]cc(C(=O)C(=O)N3CCN(C(=O)c4ccccc4)C[C@H]3C)c12` [BMS-806] was tested. Which EC50 [1] did it give?
**A.** 5.7 nM

**Q.** And the EC50 [2]?
**A.** 2.1 nM

**Q.** And the EC50 [3]?
**A.** 2.5 nM

**Q.** And the EC50 [4]?
**A.** 5.5 nM

**Q.** And the EC50 [5]?
**A.** 2.7 nM

**Q.** What about the EC50 [6] of the same molecule?
**A.** 818 nM

**Q.** What about the EC50 [7] of the same molecule?
**A.** 2.3 nM

**Q.** And the EC50 [8]?
**A.** 5.5 nM

**Q.** What about the EC50 [9] of the same molecule?
**A.** 5.3 nM

**Q.** What about the EC50 [10] of the same molecule?
**A.** 336 nM

**Q.** And the EC50 [11]?
**A.** 3.9 nM

**Q.** What about the EC50 [12] of the same molecule?
**A.** 3.5 nM
